# System: DM1 patient derived fibroblasts containing 500 CUG repeats
# Experiment: MBNL1 pre-mRNA splicing defects in DM1 patient derived fibroblasts
# Assay type: cell-based
# Conditions: 300 and 200 μM, 48 h
# Protocol: Bioactivity of 2GN8 was further assessed using DM1 patient derived fibroblasts containing 500 CUG repeats. First 2GN8 was evaluated for improvement of DM1 MBNL1 splicing defects. In DM1, mis-splicing of MBNL1 exon 5 results in an increase in inclusion to ˜30% compared to ˜15% inclusion in healthy tissue.
# Bioactivity of 2GN8 was assessed by using DM1 patient derived fibroblasts containing 500 CTG repeats (GM03987) and healthy fibroblasts (GM07492). Cells were grown as monolayers in 6 well plates in growth medium (1×EMEM (Lonza), 10% FBS, 1× glutagro (Corning), 1×MEM non-essential amino acids (Corning) and 1× antibiotic/antimycotic (Corning)). Once cells were ˜80% confluent, they were treated with growth medium containing 2GN8 (300, 200 and 100 μM). After 48 h the cells were lysed and the total RNA was harvested using a Zymo Quick RNA miniprep kit. An on-column DNA digestion was completed per the manufacturer's recommended protocol. Approximately 100 ng of total RNA was reverse transcribed at 50° C. using 100 units of SuperScript III reverse transcriptase (Life Technologies). Then 20% of the RT reaction was subjected to PCR using GoTaq DNA polymerase. RT-PCR products were observed after 25 cycles of 95° C. for 30 s, 58° C. for 30 s, 72° C. for 1 min and a final extension at 72° C. for 1 min. The products were separated on an 2% agarose gel ran at 100 V for 1 h in 1×TAE buffer. […]
compound,measurement,value
N=C(N)Nc1ccc2nc(-c3ccc(-c4nc5ccc(NC(=N)N)cc5[nH]4)cc3)[nH]c2c1 [Compound 2GN8],improvement of MBNL1 pre-mRNA splicing defects (exon 5 inclusion),substantially improves

# Source: patent US20180296532A1, “RNA-Focused Small Molecules for Inhibiting RNA Toxicity in Myotonic Dystrophy” (The Scripps Research Institute, priority 2015, published 2018)
